Series [1] concerns hepatic enzymes. As to the kind of experiment: Auto-induction on repeated dosing (fall in C max / AUC). The class given is in vivo. To be noted: repeated dosing to a warm-blooded animal. The text has this: The result is a decrease on repeat dosing of the quantity of the compound present in the animal's blood stream as shown, for example, by a decrease in the maximum concentration achieved (C max) or, for example, a decrease in the exposure of the animal to the compound as measured by the area under the curve (AUC) of a plot of the concentration of the compound in the blood stream versus time after dosing.

The test system of series [2] is 5-LO. Briefly: Test c): in vivo zymosan-induced LTB4 liberation in rat subcutaneous air pouch. Details: species or system male rats. The following applies: oral, approximate value, 180 min.
Series [3] concerns the target T1, 5-LO (Homo sapiens, UniProt P09917).
T1 construct: incubating a test compound with heparinised human blood, prior to challenge with the calcium ionophore A23187; endogenous in cells; host or cells: blood cells of heparinised human whole blood
T1 sequence (P09917 1-674): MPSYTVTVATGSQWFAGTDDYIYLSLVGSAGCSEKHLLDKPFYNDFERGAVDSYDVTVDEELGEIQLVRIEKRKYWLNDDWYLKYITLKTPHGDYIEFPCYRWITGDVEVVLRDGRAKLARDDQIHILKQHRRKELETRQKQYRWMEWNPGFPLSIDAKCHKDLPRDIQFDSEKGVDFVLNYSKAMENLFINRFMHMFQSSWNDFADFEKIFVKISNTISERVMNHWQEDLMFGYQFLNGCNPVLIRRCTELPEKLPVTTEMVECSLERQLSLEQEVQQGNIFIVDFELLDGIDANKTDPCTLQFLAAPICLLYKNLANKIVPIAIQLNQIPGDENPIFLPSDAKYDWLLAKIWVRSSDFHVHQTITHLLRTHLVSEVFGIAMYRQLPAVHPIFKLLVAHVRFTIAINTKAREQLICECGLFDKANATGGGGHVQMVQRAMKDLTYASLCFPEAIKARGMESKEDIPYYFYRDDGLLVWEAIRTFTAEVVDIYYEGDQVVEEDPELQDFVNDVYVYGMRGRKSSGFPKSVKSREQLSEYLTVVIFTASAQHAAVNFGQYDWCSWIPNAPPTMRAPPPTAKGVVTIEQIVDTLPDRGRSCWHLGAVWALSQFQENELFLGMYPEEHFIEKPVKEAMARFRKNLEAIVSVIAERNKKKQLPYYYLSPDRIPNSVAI
Briefly: Test a): in vitro heparinised human blood challenged with calcium ionophore A23187, LTB4 radioimmunoassay. The class given is cell-based. To be noted: heparinised human blood, A23187 challenge; read-out: IC₅₀ against LTB₄ in test a). The source says:
As stated previously, the compounds of the formula I are inhibitors of the enzyme 5-LO. […] J. Pharmacol. 1985, 84, 34P) which involve the use of a protein-LTB₄ conjugate produced using the procedure of Young et alia (Prostaglandins, 1983, 26(4), 605-613). The effects of a test compound on the enzyme cyclooxygenase (which is involved in the alternative metabolic pathway for arachidonic acid and gives rise to prostaglandins, thromboxanes and related metabolites) may be measured at the same time using the specific radioimmunoassay for thromboxane B₂(TxB₂) described by Carey and Forder (see above). This test provides an indication of the effects of a test compound against 5-LO and also cyclooxygenase in the presence of blood cells and proteins. It permits the selectivity of the inhibitory effect on 5-LO or cyclooxygenase to be assessed. • b) An ex vivo assay system, which is a variation of test a) above, involving administration to a group of rats of a test compound (usually orally as the suspension produced when a solution of the test compound in dimethylsulphoxide is added to carboxymethylcellulose), blood collection, heparinisation, challenge with A23187 and radioimmunoassay of LTB₄ and TxB₂. […]

Results on two molecules are retold here after patent EP0636624A1, “Thiazole derivatives as lipoxygenase inhibitors” (ZENECA LIMITED, priority 1993, dated 1995).

Molecules are shown by their SMILES.

With `COC1(c2ccc(Sc3ccc4c(c3)CCC(=O)N4C)s2)CCOCC1` [4-methoxy-4-[5-(1-methyl-2-oxo-1,2,3,4-tetrahydroquinolin-6-ylthio)-thien-2-yl]tetrahydropyran], in series [1], the auto-induction entry is “possesses the undesirable property of auto-induction”. In the case of `CO[C@]1(c2cnc(Sc3ccc4c(c3)CCC(=O)N4C)s2)CCO[C@@H](C)C1` [Example 3, (2S,4R)-4-methoxy-2-methyl-4-[2-(1-methyl-2-oxo-1,2,3,4-tetrahydroquinolin-6-ylthio)thiazol-5-yl]tetrahydropyran], the “IC₅₀ against LTB₄ in test c)” value in series [2] is given as “approximately 0.2 mg/kg”. For the same molecule, in series [3], the IC50 was 0.06 µM.
